Here are results for 13 molecules from ChEMBL document CHEMBL1201862, “PubChem BioAssay data set” (2004).

Experiment [1] has as its target Induced myeloid leukemia cell differentiation protein Mcl-1 (Homo sapiens, UniProt Q07820). The format is functional.
Experiment [2] has as its target T1, Replicative DNA helicase DnaB (Mycobacterium tuberculosis, UniProt P9WMR3).
T1 sequence (P9WMR3 whole entry): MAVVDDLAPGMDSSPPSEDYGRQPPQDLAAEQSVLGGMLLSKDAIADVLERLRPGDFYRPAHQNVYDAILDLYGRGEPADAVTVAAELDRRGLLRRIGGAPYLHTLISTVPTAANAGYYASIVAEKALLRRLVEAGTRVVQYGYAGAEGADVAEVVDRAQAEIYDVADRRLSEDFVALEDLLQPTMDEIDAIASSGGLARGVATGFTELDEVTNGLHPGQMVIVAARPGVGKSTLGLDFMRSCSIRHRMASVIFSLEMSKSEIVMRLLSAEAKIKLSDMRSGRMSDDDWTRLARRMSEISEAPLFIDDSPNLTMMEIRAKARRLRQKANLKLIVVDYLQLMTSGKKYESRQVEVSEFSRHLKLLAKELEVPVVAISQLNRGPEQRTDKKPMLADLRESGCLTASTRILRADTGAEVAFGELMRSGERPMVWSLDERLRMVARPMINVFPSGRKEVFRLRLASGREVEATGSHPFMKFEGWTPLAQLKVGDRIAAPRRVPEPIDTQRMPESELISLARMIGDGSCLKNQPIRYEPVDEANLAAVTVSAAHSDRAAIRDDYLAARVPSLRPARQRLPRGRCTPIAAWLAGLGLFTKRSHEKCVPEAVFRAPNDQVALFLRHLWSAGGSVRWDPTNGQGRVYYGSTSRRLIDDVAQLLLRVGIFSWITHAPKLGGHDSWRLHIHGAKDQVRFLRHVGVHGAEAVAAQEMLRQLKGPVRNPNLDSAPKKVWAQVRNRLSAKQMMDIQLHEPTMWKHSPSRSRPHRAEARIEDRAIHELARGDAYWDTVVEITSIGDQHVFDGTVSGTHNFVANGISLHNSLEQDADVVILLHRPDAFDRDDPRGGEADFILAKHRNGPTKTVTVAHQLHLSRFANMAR
The experiment in a line: DnaB intein splicing inhibitors, dose response, biochemical, cell-free fluorescence (AID 449749). Type of experiment: functional.

Experiment [3] deals with T2, Mannose-6-phosphate isomerase (Homo sapiens, UniProt P34949).
T2 sequence (P34949 whole entry): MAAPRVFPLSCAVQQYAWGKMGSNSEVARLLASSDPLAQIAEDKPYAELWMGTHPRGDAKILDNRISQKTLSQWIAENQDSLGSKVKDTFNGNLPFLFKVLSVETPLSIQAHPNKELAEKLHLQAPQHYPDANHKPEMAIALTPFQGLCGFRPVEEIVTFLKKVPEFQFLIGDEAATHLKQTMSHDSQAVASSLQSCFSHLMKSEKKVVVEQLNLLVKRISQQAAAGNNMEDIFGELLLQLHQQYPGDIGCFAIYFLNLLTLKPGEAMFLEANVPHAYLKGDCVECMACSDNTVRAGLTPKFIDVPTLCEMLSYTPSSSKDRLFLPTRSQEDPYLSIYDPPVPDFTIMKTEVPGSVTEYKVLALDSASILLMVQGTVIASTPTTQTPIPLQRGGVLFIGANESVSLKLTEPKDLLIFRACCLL
In words: MPI inhibition at elevated mannose 6-phosphate – biochemical, fluorescence intensity, high mannose 6-phosphate, primary screen (AID 1220).

A further experiment has as its target T3, Protein RecA (Mycobacterium tuberculosis, UniProt P9WHJ3).
T3 sequence (P9WHJ3 whole entry): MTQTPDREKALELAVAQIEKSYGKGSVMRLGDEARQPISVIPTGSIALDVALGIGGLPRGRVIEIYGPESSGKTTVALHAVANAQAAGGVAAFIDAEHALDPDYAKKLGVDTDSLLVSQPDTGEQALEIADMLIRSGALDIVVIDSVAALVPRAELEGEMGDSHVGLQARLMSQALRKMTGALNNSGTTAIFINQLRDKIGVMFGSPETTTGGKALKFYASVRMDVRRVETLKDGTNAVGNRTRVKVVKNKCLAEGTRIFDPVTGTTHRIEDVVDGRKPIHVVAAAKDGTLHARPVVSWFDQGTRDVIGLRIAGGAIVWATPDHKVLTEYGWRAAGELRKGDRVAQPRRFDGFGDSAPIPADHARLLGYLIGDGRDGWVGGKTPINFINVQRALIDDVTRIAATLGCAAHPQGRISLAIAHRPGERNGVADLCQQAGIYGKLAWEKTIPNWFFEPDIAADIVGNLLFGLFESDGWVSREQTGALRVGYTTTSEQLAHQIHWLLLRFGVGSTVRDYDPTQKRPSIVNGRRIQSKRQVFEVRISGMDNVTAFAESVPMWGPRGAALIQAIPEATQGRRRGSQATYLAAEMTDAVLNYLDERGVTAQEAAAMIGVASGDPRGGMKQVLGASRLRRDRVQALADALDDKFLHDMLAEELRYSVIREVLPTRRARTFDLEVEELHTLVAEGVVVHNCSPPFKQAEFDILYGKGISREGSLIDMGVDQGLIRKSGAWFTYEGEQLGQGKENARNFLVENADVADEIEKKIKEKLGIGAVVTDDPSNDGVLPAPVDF
The experiment in a line: Fluorescence Cell-Free Homogeneous Dose Retest to Identify Inhibitors of RecA-Intein Splicing Activity. [Related pubchem assays (depositor defined):AID2097, AID2223, AID489010, AID492950]. Type of experiment: functional.

The nature of experiment [4]: off-target signal loss in HeLa-CEM21 co-culture – HeLa F-luc CTL cells, cherry-picked, counter-screen for HIV-1 Env fusion inhibitor project, dose response (AID 652040).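 Note: potency for signal decrease marking cytotoxic or nonspecific inhibition.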 The format is functional, cell-based.
Experiment [5] can be described thus: blockers of HIV-1 ZM109 envelope-driven cell-cell fusion – HeLa effector, CEM target cells, luciferase, cherry-pick, dose response (AID 652058).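 Note: luciferase signal from HIV-1 Env mediated cell-cell fusion of effector and target cells.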 The format is functional, cell-based.
Experiment [6] is described as follows: blockers of HIV-1 envelope-mediated cell-cell fusion – cherry-pick, dose response (AID 652057). The format is functional, cell-based.
Experiment [7] in a line: HIV-1 AD8 envelope cell-cell fusion blockers – cherry-pick, dose response (AID 652062).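 Note: luciferase signal from cell-cell fusion driven by HIV-1 clade B AD8 Env; potency is for inhibitors of fusion seen as a drop in luminescence.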 The format is functional, cell-based.
Experiment [8] has as its target T4, Calpain-2 catalytic subunit (Sus scrofa, UniProt P43367).
T4 sequence (P43367 whole entry): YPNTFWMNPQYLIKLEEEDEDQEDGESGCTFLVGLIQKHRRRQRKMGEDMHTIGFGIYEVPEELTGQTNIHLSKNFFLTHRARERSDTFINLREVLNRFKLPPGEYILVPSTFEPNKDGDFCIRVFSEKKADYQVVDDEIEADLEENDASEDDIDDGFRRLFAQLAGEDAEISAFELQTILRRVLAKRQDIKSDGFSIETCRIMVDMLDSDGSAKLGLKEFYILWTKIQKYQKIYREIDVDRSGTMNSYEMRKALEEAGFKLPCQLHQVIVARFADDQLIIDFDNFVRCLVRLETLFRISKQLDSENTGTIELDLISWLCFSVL
In words: m-calpain protease blockers, concentration series – biochemical, fluorogenic peptide substrate, dose response (AID 1420). Type of experiment: functional.

For a further experiment, the target named is T5, Leucine aminopeptidase (Plasmodium falciparum 3D7, UniProt Q8IL11).
T5 sequence (Q8IL11 whole entry): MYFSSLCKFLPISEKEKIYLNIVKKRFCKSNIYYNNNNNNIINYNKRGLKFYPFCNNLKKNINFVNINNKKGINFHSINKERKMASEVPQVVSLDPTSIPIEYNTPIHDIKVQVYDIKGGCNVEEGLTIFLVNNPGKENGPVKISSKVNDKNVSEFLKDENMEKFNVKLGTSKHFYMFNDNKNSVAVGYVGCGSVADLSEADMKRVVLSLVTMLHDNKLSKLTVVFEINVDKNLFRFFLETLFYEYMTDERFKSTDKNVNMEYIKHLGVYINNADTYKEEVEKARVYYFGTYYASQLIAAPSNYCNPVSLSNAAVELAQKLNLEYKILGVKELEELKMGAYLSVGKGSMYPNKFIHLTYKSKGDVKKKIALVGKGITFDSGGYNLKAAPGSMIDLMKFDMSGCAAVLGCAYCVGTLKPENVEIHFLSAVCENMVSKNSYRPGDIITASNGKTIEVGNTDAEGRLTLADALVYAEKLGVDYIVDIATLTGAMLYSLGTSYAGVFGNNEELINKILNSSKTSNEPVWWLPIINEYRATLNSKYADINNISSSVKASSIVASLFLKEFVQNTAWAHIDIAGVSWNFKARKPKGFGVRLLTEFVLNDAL
The experiment in a line: P. falciparum M17LAP inhibitors, primary screen, biochemical, fluorogenic H-Leu-NHMec substrate, 1536-well (AID 1619). The format is functional.

Experiment [9] can be described thus: loss of viability in HepG2 cells – cell-based, CellTiter-Glo, cherry-picked, cytotoxicity control for Shn3 inhibitor project, dose response (AID 624134). Type of experiment: functional.
The nature of experiment [10]: non-specific 3'UTR reporter inhibition in Clone20-Shn3RL – cell-based, Renilla luciferase, cherry-picked, counter-screen for Shn3 inhibitor project, dose response (AID 624133). Type of experiment: functional. (In general: Counterscreens check selectivity or assay interference.)
Experiment [11] is described as follows: reduction of Shn3 3'UTR-driven luciferase in osteoblasts – cell-based, Clone20 osteoblasts, firefly luciferase, cherry-picked, dose response (AID 624132).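 Note: firefly luciferase luminescence from reporter carrying the Shn3 3'UTR in osteoblasts.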 Type of experiment: functional.
The target in another experiment is Ion channel NompC (Danio rerio, UniProt Q7T1G6). In words: Fluorescence counterscreen assay for TRPML3 agonists: dose response cell-based high-throughput screening assay to identify agonists of the transient receptor potential channel N1 (TRPN1). [Related pubchem assays: 1526, 1424, 1448 ]. Type of experiment: functional.
The next experiment addresses T6, Mucolipin-3 (Homo sapiens, UniProt Q8TDD5).
T6 sequence (Q8TDD5 whole entry): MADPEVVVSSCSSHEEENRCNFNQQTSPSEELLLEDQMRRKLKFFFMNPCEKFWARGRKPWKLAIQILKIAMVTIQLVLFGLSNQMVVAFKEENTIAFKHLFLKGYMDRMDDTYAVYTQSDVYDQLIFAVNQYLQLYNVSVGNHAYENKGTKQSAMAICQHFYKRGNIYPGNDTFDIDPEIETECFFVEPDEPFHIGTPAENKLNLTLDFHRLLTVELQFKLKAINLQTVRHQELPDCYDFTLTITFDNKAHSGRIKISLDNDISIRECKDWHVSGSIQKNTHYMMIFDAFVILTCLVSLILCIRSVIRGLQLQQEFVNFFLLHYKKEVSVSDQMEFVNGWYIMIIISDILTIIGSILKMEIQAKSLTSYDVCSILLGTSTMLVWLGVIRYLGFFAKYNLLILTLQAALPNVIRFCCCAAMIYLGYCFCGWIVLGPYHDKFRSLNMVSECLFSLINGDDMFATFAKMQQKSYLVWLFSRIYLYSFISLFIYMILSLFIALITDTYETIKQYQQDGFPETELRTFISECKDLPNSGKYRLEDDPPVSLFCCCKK
The experiment in a line: Dose response cell-based high-throughput screening assay for agonists of the transient receptor potential channel ML3 (TRPML3). [Related pubchem assays: 1526, 1424, 1448 ]. The format is functional.

The target of experiment [12] is T7, Ubiquitin-conjugating enzyme E2 N (Homo sapiens, UniProt P61088).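 Note: Dose-response confirmation in a TR-FRET assay detecting UBC13-driven polyubiquitin chain formation, inhibition measured.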
T7 sequence (P61088 whole entry): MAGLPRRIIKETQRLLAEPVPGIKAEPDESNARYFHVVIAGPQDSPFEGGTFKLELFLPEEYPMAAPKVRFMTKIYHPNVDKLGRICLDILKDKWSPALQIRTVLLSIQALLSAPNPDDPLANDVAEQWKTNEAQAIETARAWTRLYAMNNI
Type of experiment: functional.

The source made the active and inactive calls.

Chain of Ion channel NompC (Q7T1G6 whole entry): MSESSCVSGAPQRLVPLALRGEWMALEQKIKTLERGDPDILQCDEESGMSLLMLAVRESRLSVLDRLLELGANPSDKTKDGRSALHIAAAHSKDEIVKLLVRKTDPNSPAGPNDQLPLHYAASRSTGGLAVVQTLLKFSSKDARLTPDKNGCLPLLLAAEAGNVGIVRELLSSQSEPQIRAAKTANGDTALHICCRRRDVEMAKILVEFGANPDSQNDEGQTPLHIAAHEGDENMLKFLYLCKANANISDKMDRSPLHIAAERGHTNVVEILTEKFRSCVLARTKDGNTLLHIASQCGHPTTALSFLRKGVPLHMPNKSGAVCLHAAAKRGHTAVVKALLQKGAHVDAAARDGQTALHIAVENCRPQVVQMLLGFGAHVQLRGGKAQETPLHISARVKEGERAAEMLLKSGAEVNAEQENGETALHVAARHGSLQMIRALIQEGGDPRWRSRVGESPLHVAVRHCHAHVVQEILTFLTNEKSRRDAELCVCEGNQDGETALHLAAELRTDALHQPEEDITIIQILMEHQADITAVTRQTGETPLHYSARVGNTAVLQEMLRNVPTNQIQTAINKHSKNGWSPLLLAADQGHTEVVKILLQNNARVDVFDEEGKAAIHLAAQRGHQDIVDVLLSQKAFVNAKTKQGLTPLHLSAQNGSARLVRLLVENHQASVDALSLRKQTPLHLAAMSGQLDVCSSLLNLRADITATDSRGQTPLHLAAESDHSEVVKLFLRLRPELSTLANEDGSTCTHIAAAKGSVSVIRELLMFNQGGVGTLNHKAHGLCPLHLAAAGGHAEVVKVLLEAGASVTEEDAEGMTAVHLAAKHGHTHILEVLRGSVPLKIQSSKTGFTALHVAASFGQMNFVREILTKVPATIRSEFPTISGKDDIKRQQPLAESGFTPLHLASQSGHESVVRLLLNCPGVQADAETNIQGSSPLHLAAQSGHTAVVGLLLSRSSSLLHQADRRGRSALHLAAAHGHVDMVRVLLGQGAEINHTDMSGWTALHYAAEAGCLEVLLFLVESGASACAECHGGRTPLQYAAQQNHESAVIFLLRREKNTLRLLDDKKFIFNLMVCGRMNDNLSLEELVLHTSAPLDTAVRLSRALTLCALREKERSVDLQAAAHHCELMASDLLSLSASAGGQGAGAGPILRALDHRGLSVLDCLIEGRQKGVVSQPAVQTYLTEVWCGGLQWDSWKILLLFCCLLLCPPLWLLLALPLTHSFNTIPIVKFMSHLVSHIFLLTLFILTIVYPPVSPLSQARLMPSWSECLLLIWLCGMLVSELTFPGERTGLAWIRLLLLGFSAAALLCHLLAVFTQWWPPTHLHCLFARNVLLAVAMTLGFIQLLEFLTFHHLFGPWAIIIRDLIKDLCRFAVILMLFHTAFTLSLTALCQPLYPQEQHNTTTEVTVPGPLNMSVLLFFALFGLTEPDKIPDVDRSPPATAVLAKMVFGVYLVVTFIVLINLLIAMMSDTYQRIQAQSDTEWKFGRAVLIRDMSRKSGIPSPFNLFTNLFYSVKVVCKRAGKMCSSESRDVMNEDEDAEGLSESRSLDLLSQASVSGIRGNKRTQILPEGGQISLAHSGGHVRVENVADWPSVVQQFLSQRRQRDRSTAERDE
Chain of Induced myeloid leukemia cell differentiation protein Mcl-1 (Q07820 whole entry): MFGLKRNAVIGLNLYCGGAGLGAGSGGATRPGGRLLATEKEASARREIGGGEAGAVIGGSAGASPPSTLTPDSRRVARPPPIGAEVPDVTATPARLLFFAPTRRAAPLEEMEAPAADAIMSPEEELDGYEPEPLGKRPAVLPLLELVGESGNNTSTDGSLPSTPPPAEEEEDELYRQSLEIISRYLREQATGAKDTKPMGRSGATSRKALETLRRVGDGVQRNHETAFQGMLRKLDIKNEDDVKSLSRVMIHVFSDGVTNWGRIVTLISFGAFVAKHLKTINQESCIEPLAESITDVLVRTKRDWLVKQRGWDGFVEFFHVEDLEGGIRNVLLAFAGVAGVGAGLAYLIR

In the case of `CN(C)c1ccc(C(CNC(=O)c2ccc(C#N)cc2)c2c[nH]c3ccccc23)cc1` (stereo unspecified), the 50% inhibitory concentration (IC50) in [1] is given as 2.78 µM (not active).
Consider `CCCC(=O)OCCNc1cc(SCCC(=O)OC)c2nonc2c1[N+](=O)[O-]`, for which the concentration at half-maximal activity (AC50) in experiment [2] was 2.88 µM (active). Also, the IC50 in experiment [3] was > 50 µM (not active). For the same molecule, at Protein RecA, the concentration for a half-maximal effect (EC50) was 4.87 µM (active).
Take `CC(C)(C)C1CCc2onc(C(=O)NCc3ccc(F)cc3)c2C1` (stereo unspecified): the half-maximal activity concentration (AC50) was 37 µM (active) in [4], 2.91 µM (active) in [5], 23 µM (active) in experiment [6] and 21.9 µM (active) in experiment [7]. Moreover, the IC50 in experiment [8] was > 50 µM (not active).
For the molecule `Cc1ccc(Nc2cnn(C34CC5CC(CC(CC(=O)O)(C5)C3)C4)c(=O)c2Cl)cc1`, the half-maximal inhibitory concentration (IC50) at Leucine aminopeptidase was 44.1 µM (active).
Consider `COc1ccc(NC(=O)CN2C(=O)/C(=C3\SC(=S)N(C4CCS(=O)(=O)C4)C3=O)c3ccccc32)cc1` (stereo unspecified), for which, in [1], the IC50 was 3.39 µM (active).
In the case of `CC1CCC2C(=O)N(c3ccc(Cc4ccncc4)cc3)C(=O)C2C1` (stereo unspecified), the AC50 in experiment [9] is 47.7 µM (active); in experiment [10], 5.74 µM (active); in experiment [11] it was 2.65 µM (active). The half-maximal inhibitory concentration (IC50) in experiment [8] is 13.3 µM (not active).
In the case of `O=C(O)CC12CC3CC(C1)CC(n1ncc(NCc4ccc(F)cc4)c(Cl)c1=O)(C3)C2`, at Leucine aminopeptidase, the 50% inhibitory concentration (IC50) is 54 µM (active).
In the case of `CC(C)Oc1ccc(CCc2nnc(S)n2Cc2ccccc2)cc1`, the half-maximal inhibitory concentration (IC50) in experiment [8] is listed as 4.67 µM (not active).
`C=C(C)Cn1c(C)cc(C)c(S(=O)(=O)c2ccccc2C)c1=O`: the EC50 was > 29.9 µM (not active) on Ion channel NompC and 5.9 µM (active) on Mucolipin-3.
`O=C1c2ccccc2CCCC12N=NCC2c1cccc2ccccc12` (stereo unspecified): the EC50 at Ion channel NompC was > 29.9 µM (not active); on Mucolipin-3, 3.31 µM (active).
`CN(C1CCCCC1)S(=O)(=O)c1cccc(C#N)c1`: the 50% effective concentration (EC50) on Ion channel NompC is > 29.9 µM (not active); on Mucolipin-3, 3.58 µM (active).
On to `CCc1nnc(NS(=O)(=O)c2ccc(NC(=O)COc3ccc4ccccc4c3)cc2)s1`, for which the IC50 on Leucine aminopeptidase is 5.1 µM (active).
Take `Cc1ccc(/N=C2\C(Cl)=C(O)OC2OC(=O)c2ccccc2C)cc1` (stereo unspecified): the IC50 in experiment [12] was > 20 µM (inactive); in [8] it was 12.6 µM (not active).

Broadly, the IC50 is the midpoint of a concentration-inhibition curve. The term AC50 denotes the concentration giving half of the maximal activity seen. Broadly, the EC50 is the concentration giving half of the maximal effect.
